{"source": "PubChem BioAssay AID504472", "about": "(NMMLSC, 2011)", "note": "The source made the active and inactive calls.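 Rule for the calls: active = compound moving the GFP-tagged Gln3 signal into the yeast nucleus, as rapamycin does; inactive = the rest.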"}
{"system": "S. cerevisiae Gln3-GFP nuclear translocation, microscopy", "assay": "Gln3-GFP nuclear translocation in yeast, SAR follow-up, yeast TOR pathway modulator project, S. cerevisiae, GFP fusion, microscopy (AID 504472)", "settings": "at 30 µM; stronger effect = higher value"}
{"smiles": "CNc1nc(N)c([N+](=O)[O-])c(Nc2cccc(F)c2)n1", "nuclear translocation (1=yes)": "0 (inactive)"}
{"smiles": "CNc1nc(N)c([N+](=O)[O-])c(Nc2cccc(Cl)c2)n1", "nuclear translocation (1=yes)": "0 (inactive)"}
{"smiles": "CO[C@H]1C[C@@H]2CC[C@@H](C)[C@@](O)(O2)C(=O)C(=O)N2CCCC[C@H]2C(=O)O[C@H]([C@H](C)C[C@@H]2CC[C@@H](O)[C@H](OC)C2)CC(=O)[C@H](C)/C=C(\\C)[C@@H](O)[C@@H](OC)C(=O)[C@H](C)C[C@H](C)/C=C/C=C/C=C/1C", "nuclear translocation (1=yes)": 1}
{"smiles": "CNc1nc(N)c([N+](=O)[O-])c(Nc2ccccc2)n1", "nuclear translocation (1=yes)": "0 (inactive)"}
